Laboratory results reported in patent EP1243271A1, “NASAL DROPS CONTAINING FUSED PYRIDAZINE DERIVATIVES” (Takeda Chemical Industries, Ltd., priority 1999, dated 2001).
Structures can show the parent of a compound that is named as a salt.

These compounds were tested on Male Hartley guinea pigs (assay: Effect on histamine-induced increases in microvascular permeability in skin in guinea pigs). Conditions: Cavia porcellus; 3 mg/kg oral administration 1 hour before histamine; guinea pig skin.
Assay type: in vivo
Experimental: Male Hartley guinea pigs weighing about 500 g were used. After the dorsal hair was shaved under ether anesthesia, 1 ml of a 2.5% pontamine sky blue solution was injected intravenously, and then 0.1 ml of histamine at 3 µg/ml was injected intradermally into 2 sites (left and right) in the back. Thirty minutes after the injection of histamine, animals were fainted by knocking in the head, decapitated and killed by bleeding, after which the skin of the back was removed. The long and short diameters (mm) of each blue spot were measured and multiplied; the mean product was taken as the vascular permeability index. Test compounds were suspended in a 5% gum arabic solution and orally administered in a volume of 0.2 ml/100 g body weight at 1 hour before histamine administration. Animals in the control group received the same volume of a 5% gum arabic solution. Equation 1 Inhibition (%) of histamine-induced increases in microvascular permeability in skin = 100 × (1-vascular permeability index in the presence of drug/vascular permeability index in control group) [formula]

For CC(C)(C(=O)O)c1cn2nc(OCCCN3CCC(OC(c4ccccc4)c4ccccc4)CC3)ccc2n1 [Reference Example B45, 2-[6-[3-[4-(diphenylmethoxy)piperidino]-propoxy]imidazo[1,2-b]pyridazin-2-yl]-2-methylpropionic acid], which inhibition in vivo at 3 mg/kg is on record?
Its inhibition in vivo at 3 mg/kg is 91%.

How did the inhibition in vivo at 3 mg/kg turn out when c1ccc(C(c2ccccc2)N2CCN(CCCCCCNc3ccc4ncnn4n3)CC2)cc1 [Reference Example B37, 6-[6-[4-(diphenylmethyl)-1-piperazinyl]-hexylamino][1,2,4]triazolo[1,5-b]pyridazine] was run?
Its inhibition in vivo at 3 mg/kg is 92%.

Which inhibition in vivo at 3 mg/kg does the source give for Cc1nc2ccc(OCCCN3CCC(OC(c4ccccc4)c4ccccc4)CC3)nn2n1 [Reference Example B21, 6-[3-[4-(diphenylmethoxy)piperidino]propoxy]-2-methyl[1,2,4]triazolo[1,5-b]pyridazine] here?
The inhibition in vivo at 3 mg/kg was 91%.

How did the inhibition in vivo at 3 mg/kg turn out when c1ccc(C(OC2CCN(CCCCNc3ccc4ncnn4n3)CC2)c2ccccc2)cc1 [Reference Example B12, 6-[4-[4-(diphenylmethoxy)piperidino]-butylamino][1,2,4]triazolo[1,5-b]pyridazine] was run?
The inhibition in vivo at 3 mg/kg was 91%.

With Cc1nc2ccc(NCCCN3CCC(OC(c4ccccc4)c4ccccc4)CC3)nn2n1 [Reference Example B20, 6-[3-[4-(diphenylmethoxy)piperidino]-propylamino]-2-methyl[1,2,4]triazolo[1,5-b]pyridazine] as the compound, how does the inhibition in vivo at 3 mg/kg read?
Its inhibition in vivo at 3 mg/kg is 92%.

With COc1cn2nc(OCCCN3CCC(OC(c4ccccc4)c4ccccc4)CC3)ccc2n1 [Reference Example B41, 6-[3-[4-(diphenylmethoxy)piperidino]propoxy]-2-methoxyimidazo[1,2-b]pyridazine] as the compound, how does the inhibition in vivo at 3 mg/kg read?
Its inhibition in vivo at 3 mg/kg is 92%.

O=C(CCN1CCC(OC(c2ccccc2)c2ccccc2)CC1)Nc1ccc2ncnn2n1 [Reference Example B18, 3-[4-(diphenylmethoxy)piperidino]-N-([1,2,4]triazolo[1,5-b]pyridazin-6-yl)propionamide] was tested. Which inhibition in vivo at 3 mg/kg did it give?
Its inhibition in vivo at 3 mg/kg is 91%.

With c1ccc(C(OC2CCN(CCCNc3ccc4ncnn4n3)CC2)c2ccccc2)cc1 [Reference Example B6, 6-[3-[4-(diphenylmethoxy)piperidino]-propylamino][1,2,4]triazolo[1,5-b]pyridazine] as the compound, how does the inhibition in vivo at 3 mg/kg read?
The inhibition in vivo at 3 mg/kg was 91%.

The compounds below were run on Guinea Pig Eosinophils (assay: Suppression of LTB4-induced chemotactic reaction of guinea pig eosinophils). Conditions: Cavia porcellus, Eosinophil, test drug 1 × 10^-5 M, LTB4 10^-8 M, read-out: Suppression Rate (%).
Assay type: cell-based, guinea pigs
Experimental: To male Hartley guinea pigs, 2 ml of equine serum (Bio-Whittaker, Inc.) was intraperitoneally administered once weekly for 8 consecutive weeks. At 48 hours after final administration, 75 ml of physiological saline was intraperitoneally injected, after which the recovered solution was centrifuged at 400 × g for 5 minutes. The resulting sediment was suspended in 5 ml of Percoll solution (density d=1.07) and layered on top of the discontinuous density layer of Percoll solution (density d=1.112, 5 ml; d=1.095, 10 ml; d=1.090, 10 ml; d=1.085, 5 ml), followed by centrifugation at 1,000 × g for 25 minutes (20°C). The cell layer formed at the interface between density d= 1.112 and density d=1.095 was collected. Erythrocytes present in the collected cell sediment were removed by hypotonic treatment (suspended in water for […]).
The cell sediment was washed 3 times with Hanks' solution containing 10 mM Hepes (Dojin Kagaku) (Hanks-Hepes) and suspended in a Hanks-Hepes solution containing 2% human serum albumin (Wako Pure Chemical Industry or Sigma) (Hanks-Hepes-HSA) to a concentration of 5.56×10^6 cells/ml. Eosinophil purity was 90%, viability was over 98%.
To a 24-well culture dish, which serves as a lower chamber, 600 µl of Hanks-Hepes-HSA solution containing LTB4 (final concentration 10^-8 M, Cascade Biochemical Ltd.), was transferred, followed by incubation at 37°C for 30 minutes in a carbon dioxide incubator. Separately, 200 µl of eosinophil suspension (5×10^6 cells/ml), previously incubated at 37°C for 15 minutes, was added to Chemotaxicell (polycarbonate membrane, pore size 3 µm, thickness 10 µm), which serves as an upper chamber, after the upper chamber was attached to the 24-well culture dish. After 2 hours of reaction in the carbon dioxide incubator, the Chemotaxicell was removed; 60 µl of 2% (w/v) EDTA solution in physiological saline was added to the liquid in the lower chamber. After ice-cooling, the cells migrating into the inner solution of the lower chamber were counted using a blood cell counter [Coulter Counter (trade name)]. The test drug, dissolved in N,N-dimethylformamide (DMF), was added to both the upper and lower chambers to a final concentration of 10^-5 M. Equation 2 Chemotactic reaction suppression rate = [1-(number of migrating cells in the presence of drug/number of migrating cells in the absence of drug)] × 100 [formula] suppression rates of LTB4 -induced chemotactic reaction by test drug (1 × 10^-5 M concentration) were calculated.

With c1ccc(C(OC2CCN(CCCCCCNc3ccc4ncnn4n3)CC2)c2ccccc2)cc1 [Reference Example B35, 6-[6-[4-(diphenylmethoxy)piperidino]-hexylamino][1,2,4]triazolo[1,5-b]pyridazine] as the compound, how does the inhibition at 10 µM read?
The inhibition at 10 µM was 52%.

For Cc1cc2ncnn2nc1OCCOCCN1CCN(C(c2ccccc2)c2ccccc2)CC1 [Reference Example B47, 6-[2-[2-[4-(diphenylmethyl)-1-piperazinyl]-ethoxy]ethoxy]-7-methyl[1,2,4]triazolo[1,5-b]pyridazine], which inhibition at 10 µM is on record?
Its inhibition at 10 µM is 54%.

For CC(C)c1cc2ncnn2nc1OCCOCCN1CCN(C(c2ccccc2)c2ccccc2)CC1 [Reference Example B61, 6-[2-[2-[4-(diphenylmethyl)-1-piperazinyl]-ethoxy]ethoxy]-7-isopropyl[1,2,4]triazolo[1,5-b]pyridazine], which inhibition at 10 µM is on record?
Its inhibition at 10 µM is 50%.

For c1ccc(C(OC2CCN(CCCOc3ccc4ncnn4n3)CC2)c2ccccc2)cc1 [Reference Example B2, 6-[3-[4-(diphenylmethoxy)piperidino]propoxy]-[1,2,4]triazolo[1,5-b]pyridazine fumarate], which inhibition at 10 µM is on record?
Its inhibition at 10 µM is 54%.

CC(C)(C)c1nc2ccc(NCCCN3CCC(OC(c4ccccc4)c4ccccc4)CC3)nn2n1 [Reference Example B34, 2-tert-butyl-6-[3-[4-(diphenylmethoxy)-piperidino]propylamino][1,2,4]triazolo[1,5-b]pyridazine fumarate] was tested. Which inhibition at 10 µM did it give?
The inhibition at 10 µM was 50%.

Which inhibition at 10 µM does the source give for CC(C)(C)c1cc2ncnn2nc1OCCOCCN1CCN(C(c2ccccc2)c2ccccc2)CC1 [Reference Example B62, 7-tert-butyl-6-[2-[2-[4-(diphenylmethyl)-1-piperazinyl]ethoxy]ethoxy][1,2,4]triazolo[1,5-b]pyridazine dihydrochloride] here?
Its inhibition at 10 µM is 52%.

With COC(=O)c1nc2ccc(NCCCN3CCC(OC(c4ccccc4)c4ccccc4)CC3)nn2n1 [Reference Example B36, methyl 6-[3-[4-(diphenylmethoxy)piperidino]-propylamino][1,2,4]triazolo[1,5-b]pyridazine-2-carboxylate] as the compound, how does the inhibition at 10 µM read?
Its inhibition at 10 µM is 64%.

Which inhibition at 10 µM does the source give for Cc1cc2ncnn2nc1OCCCCCCN1CCN(C(c2ccccc2)c2ccccc2)CC1 [Reference Example B51, 6-[6-[4-(diphenylmethyl)-1-piperazinyl]hexyloxy]-7-methyl[1,2,4]triazolo[1,5-b]pyridazine dihydrochloride] here?
The inhibition at 10 µM was 80%.

Which inhibition at 10 µM does the source give for Cc1nc2ccc(NCCCN3CCC(OC(c4ccccc4)c4ccccc4)CC3)nn2n1 [Reference Example B20, 6-[3-[4-(diphenylmethoxy)piperidino]-propylamino]-2-methyl[1,2,4]triazolo[1,5-b]pyridazine] here?
The inhibition at 10 µM was 61%.

How did the inhibition at 10 µM turn out when CC(C)c1cc2ncnn2nc1SCCOCCN1CCN(C(c2ccccc2)c2ccccc2)CC1 [Reference Example B59, 6-[2-[2-[4-(diphenylmethyl)-1-piperazinyl]-ethoxy]ethylthio]-7-isopropyl[1,2,4]triazolo[1,5-b]pyridazine dihydrochloride] was run?
The inhibition at 10 µM was 54%.

c1ccc(C(OC2CCN(CCCNc3ccc4ncnn4n3)CC2)c2ccccc2)cc1 [Reference Example B6, 6-[3-[4-(diphenylmethoxy)piperidino]-propylamino][1,2,4]triazolo[1,5-b]pyridazine] was tested. Which inhibition at 10 µM did it give?
Its inhibition at 10 µM is 64%.
